In ChEMBL document CHEMBL4152218, “Novel hydrazide-hydrazone and amide substituted coumarin derivatives: Synthesis, cytotoxicity screening, microarray, radiolabeling and in vivo pharmacokinetic studies” (Eur J Med Chem, 2018):
The source made the active and inactive calls.

How the values were obtained:
[1] = tested on: HepG2; experiment: Effect on CYP1A1 gene expression in human HepG2 cells at IC50 after 48 hrs by microarray analysis; type: ADME, cell-based; settings: hepg2, 48 h
[2] = tested on: HepG2; experiment: Effect on TUBB1 gene expression in human HepG2 cells at IC50 after 48 hrs by microarray analysis; type: functional, cell-based
[3] = tested on: PANC-1; experiment: Effect on NBPF20 gene expression in human PANC1 cells at IC50 after 48 hrs by microarray analysis; type: functional, cell-based
[4] = tested on: HepG2; experiment: Effect on TMEM132D gene expression in human HepG2 cells at IC50 after 48 hrs by microarray analysis; type: functional, cell-based
[5] = Inhibition of GST (unknown origin) using CDNB as substrate by spectrophotometric analysis; settings: human
[6] = tested on: HepG2; experiment: Effect on OR5P2 gene expression in human HepG2 cells at IC50 after 48 hrs by microarray analysis; type: functional, cell-based
[7] = tested on: HepG2; experiment: Effect on SYT2 gene expression in human HepG2 cells at IC50 after 48 hrs by microarray analysis; type: functional, cell-based
[8] = tested on: PANC-1; experiment: Effect on CAMK2N1 gene expression in human PANC1 cells at IC50 after 48 hrs by microarray analysis; type: functional, cell-based
[9] = tested on: TERT-RPE1; experiment: Cytotoxicity against hTERT-RPE1 cells at 12.50 uM after 48 hrs by resazurin dye-based fluorescence assay relative to control; type: cell-based; settings: human, tert-rpe1, 48 h, 12.5 µM
[10] = tested on: PANC-1; experiment: Effect on CTBP2 gene expression in human PANC1 cells at IC50 after 48 hrs by microarray analysis; type: functional, cell-based
[11] = Selectivity index, ratio of IC50 for hTERT-BJ cells to IC50 for human CCRF-CEM cells; type: toxicity; settings: hTERT-BJ cells versus CCRF-CEM cells, read-out: Ratio IC50
[12] = tested on: PANC-1; experiment: Effect on PVRL3 gene expression in human PANC1 cells at IC50 after 48 hrs by microarray analysis; type: functional, cell-based
[13] = tested on: HepG2; experiment: Effect on TOP3A gene expression in human HepG2 cells at IC50 after 48 hrs by microarray analysis; type: functional, cell-based
[14] = Selectivity index, ratio of IC50 for hTERT-RPE1 cells to IC50 for human CCRF-CEM cells; type: toxicity; settings: hTERT-RPE1 cells versus CCRF-CEM cells, read-out: Ratio IC50
[15] = tested on: PANC-1; experiment: Effect on NSBP1 gene expression in human PANC1 cells at IC50 after 48 hrs by microarray analysis; type: functional, cell-based
[16] = tested on: HepG2; experiment: Effect on TOP3B gene expression in human HepG2 cells at IC50 after 48 hrs by microarray analysis; type: functional, cell-based
[17] = tested on: PANC-1; experiment: Effect on ELP2P gene expression in human PANC1 cells at IC50 after 48 hrs by microarray analysis; type: functional, cell-based
[18] = tested on: PANC-1; experiment: Effect on CASP1 gene expression in human PANC1 cells at IC50 after 48 hrs by microarray analysis; type: functional, cell-based
[19] = tested on: HepG2; experiment: Effect on AKR1B10 gene expression in human HepG2 cells at IC50 after 48 hrs by microarray analysis; type: functional, cell-based
[20] = tested on: PANC-1; experiment: Effect on CASP7 gene expression in human PANC1 cells at IC50 after 48 hrs by microarray analysis; type: functional, cell-based
[21] = tested on: PANC-1; experiment: Effect on UPP1 gene expression in human PANC1 cells at IC50 after 48 hrs by microarray analysis; type: functional, cell-based
[22] = tested on: PANC-1; experiment: Effect on TBC1D26 gene expression in human PANC1 cells at IC50 after 48 hrs by microarray analysis; type: functional, cell-based
[23] = tested on: PANC-1; experiment: Antiproliferative activity against human PANC1 cells after 48 hrs by resazurin dye-based fluorescence assay; type: functional, cell-based; settings: PANC-1, 48 h
[24] = tested on: PANC-1; experiment: Effect on RNF151 gene expression in human PANC1 cells at IC50 after 48 hrs by microarray analysis; type: functional, cell-based
[25] = tested on: PANC-1; experiment: Effect on SDR16C5 gene expression in human PANC1 cells at IC50 after 48 hrs by microarray analysis; type: functional, cell-based
[26] = tested on: TERT-RPE1; experiment: Cytotoxicity against hTERT-RPE1 cells at 6.25 uM after 48 hrs by resazurin dye-based fluorescence assay relative to control; type: cell-based; settings: human, tert-rpe1, 48 h
[27] = tested on: PANC-1; experiment: Effect on PAH gene expression in human PANC1 cells at IC50 after 48 hrs by microarray analysis; type: functional, cell-based
[28] = tested on: HepG2; experiment: Effect on TNFRSF 19 gene expression in human HepG2 cells at IC50 after 48 hrs by microarray analysis; type: functional, cell-based
[29] = tested on: PANC-1; experiment: Effect on ZNF43 gene expression in human PANC1 cells at IC50 after 48 hrs by microarray analysis; type: functional, cell-based
[30] = tested on: HepG2; experiment: Effect on CXCR3 gene expression in human HepG2 cells at IC50 after 48 hrs by microarray analysis; type: functional, cell-based
[31] = tested on: HepG2; experiment: Effect on LANCL 1 gene expression in human HepG2 cells at IC50 after 48 hrs by microarray analysis; type: functional, cell-based
[32] = tested on: hTERT-BJ; experiment: Cytotoxicity against hTERT-BJ cells after 48 hrs by resazurin dye-based fluorescence assay; type: cell-based; settings: Homo sapiens
[33] = tested on: PANC-1; experiment: Effect on CLDN14 gene expression in human PANC1 cells at IC50 after 48 hrs by microarray analysis; type: functional, cell-based
[34] = tested on: HepG2; experiment: Effect on CASP7 gene expression in human HepG2 cells at IC50 after 48 hrs by microarray analysis; type: functional, cell-based
[35] = tested on: TERT-RPE1; experiment: Cytotoxicity against hTERT-RPE1 cells after 48 hrs by resazurin dye-based fluorescence assay; type: cell-based; settings: Homo sapiens, RPE-1, 48 h
[36] = tested on: HepG2; experiment: Effect on GADD45A gene expression in human HepG2 cells at IC50 after 48 hrs by microarray analysis; type: functional, cell-based
[37] = Selectivity index, ratio of IC50 for hTERT-RPE1 cells to IC50 for human HepG2 cells; type: toxicity; settings: hTERT-RPE1 cells versus HepG2 cells, read-out: Ratio IC50
[38] = tested on: HepG2; experiment: Effect on PRPF4B gene expression in human HepG2 cells at IC50 after 48 hrs by microarray analysis; type: functional, cell-based
[39] = tested on: hTERT-BJ; experiment: Cytotoxicity against hTERT-BJ cells at 12.50 uM after 48 hrs by resazurin dye-based fluorescence assay relative to control; type: cell-based; settings: human, 12.5 µM
[40] = tested on: HepG2; experiment: Effect on CPB2 gene expression in human HepG2 cells at IC50 after 48 hrs by microarray analysis; type: functional, cell-based
[41] = tested on: PANC-1; experiment: Effect on RBM39 gene expression in human PANC1 cells at IC50 after 48 hrs by microarray analysis; type: functional, cell-based
[42] = Selectivity index, ratio of IC50 for hTERT-BJ cells to IC50 for human HepG2 cells; type: toxicity; settings: hTERT-BJ cells versus HepG2 cells, read-out: Ratio IC50
[43] = tested on: HepG2; experiment: Effect on NAV 2 gene expression in human HepG2 cells at IC50 after 48 hrs by microarray analysis; type: functional, cell-based
[44] = Selectivity index, ratio of IC50 for hTERT-RPE1 cells to IC50 for human PANC1 cells; type: toxicity; settings: hTERT-RPE1 cells versus PANC1 cells, read-out: Ratio IC50
[45] = tested on: HepG2; experiment: Effect on GDF15 gene expression in human HepG2 cells at IC50 after 48 hrs by microarray analysis; type: functional, cell-based
[46] = tested on: HepG2; experiment: Induction of apoptosis in human HepG2 cells assessed as increase in caspase-3/7 activity after 24 hrs by Caspase-Glo 3/7 luminescence assay; type: functional, cell-based
[47] = tested on: PANC-1; experiment: Effect on JMJD2B gene expression in human PANC1 cells at IC50 after 48 hrs by microarray analysis; type: functional, cell-based

O=C(N/N=C/c1cc2ccccc2nc1Cl)c1cc2cc(Br)ccc2oc1=O
5.45 µM: IC50 [23]
> 9.18: selectivity ratio [44]
3.63%: Activity [39]
> 5.31: selectivity ratio [37] | selectivity ratio [42]
0.94%: Activity [26]
Dose-dependent effect: inhibition (INH) [5]
Active: Activity [1]
> 6.71: selectivity ratio [11] | selectivity ratio [14]
12.73%: Activity [9]
> 50 µM: IC50 [32] | IC50 [35]
active: Activity [2] | Activity [3] | Activity [4] | Activity [6] | Activity [7] | Activity [8] | Activity [10] | Activity [12] | Activity [13] | Activity [15] | Activity [16] | Activity [17] | Activity [18] | Activity [19] | Activity [20] | Activity [21] | Activity [22] | Activity [24] | Activity [25] | Activity [27] | Activity [28] | Activity [29] | Activity [30] | Activity [31] | Activity [33] | Activity [34] | Activity [36] | Activity [38] | Activity [40] | Activity [41] | Activity [43] | Activity [45] | Activity [46] Dose-dependent effect | Activity [47]
